Among the data in PubChem BioAssay AID2384 (Southern Research Specialized Biocontainment Screening …, 2010) are IC50 values, retold here.

As usually defined, the IC50 is the concentration that gives 50% inhibition.

Several values for one entry are separate records, joined by “and”; a condition that tells them apart may be missing. Equal values may be shown once.

The assay deals with S. typhi GFP reporter counter-screen, fluorescence, 4 h. Briefly: S. typhi counter-screen signal inhibition – fluorescence, 4 h, counter-screen for PhoP regulon inhibitor project, dose response (AID 2384). On the technique in general: Counterscreens check selectivity or assay interference.
As to `COc1ccc(Nc2cc(C)nc(NCc3ccccc3)n2)cc1`, the IC50 is 38.5 µM.
Turning to `N=c1n(Cc2ccc(Cl)cc2)c2ccccc2n1CC(O)COc1ccccc1` (configuration not stated), the IC50 is 36.6 µM.
The same measure for `O=C(N/N=C/c1cc(O)ccc1Br)c1cccnc1`: 69.4 µM.
For the molecule `C#CCOCCOCCOCCNc1nc(N2CCN(C(=O)CCCCCCCCCCNC(=O)[C@H](CCCCN)n3cc(C[C@@H](C)CC)nn3)CC2)nc(N2CCN(C(=O)CCCCCCCCCCNC(=O)[C@H](CCCN=C(N)N)n3cc(C[C@@H](C)CC)nn3)CC2)n1`, the IC50 was 103 µM.
Consider `C#CCOCCOCCOCCNc1nc(N2CCN(C(=O)[C@H]([C@@H](C)CC)n3cc([C@@H](N)Cc4ccc(O)cc4)nn3)CC2)nc(N2CCN(C(=O)[C@H](Cc3cc4ccccc4[nH]3)n3cc([C@@H](N)CC(C)C)nn3)CC2)n1`, for which the IC50 is 27.2 µM.
On to `CC(C)[C@@H]1CC[C@@H](C)C[C@H]1OC(=O)C[n+]1cc(-c2ccc(Cl)cc2)n2c1CCCCC2`, for which the IC50 is 74.9 µM.
In the case of `Oc1[nH]c2ccc(Br)cc2c1N=NC(=S)N1CCOCC1`, the IC50 was 33.1 µM.
For `COc1ccc(Nc2cc(C)c3c(O)cccc3n2)cc1`, the IC50 was 24.9 µM.
For the molecule `CCn1cc(C(=O)O)c(=O)c2cc(F)c(N3CCN(C)CC3)cc21`, the IC50 is 1.23 µM.
Consider `Cc1cc(N2CCC(C)CC2)nc(NCc2ccccc2)n1`, for which the IC50 is 51.8 µM.
`CCC(/C=C1\Sc2ccc(OC)cc2N1CCO)=C\c1sc2ccc(OC)cc2[n+]1CCO`: the IC50 is 32 µM.
In the case of `Cc1ccccc1C(=O)N/N=C/c1ccc([N+](=O)[O-])s1`, the IC50 is 75.3 µM.
Consider `Cc1ccc(Nc2nc(N)c3ccccc3n2)cc1Cl`, for which the IC50 is 36.3 µM.
`COc1ccc(CNCCc2cccc(F)c2)c2ccccc12`: the IC50 is 61.2 µM.
The same measure for `Nc1nonc1-n1nnc(C(=O)N/N=C/c2cc(Br)ccc2O)c1CSC1=NCCS1`: 24.1 µM; for `O=C(Cn1cncn1)N/N=C/c1ccccc1O`: 150 µM; for `O=C(/C=C/c1ccccc1)NC(=S)NNC(=O)c1cnccn1`: 20.9 µM.
Turning to `CCn1cc(C(=O)O)c(=O)c2cc(F)c(N3CCN(C(=S)NC(=O)c4cccc(F)c4)CC3)cc21`, the IC50 is 94.6 µM.
As for `CCCCCCCCCCC[N+](C)(C)CC/C=C1/c2ccccc2Sc2ccc(Cl)cc21`, the concentration for half-maximal inhibition (IC50) is 53.6 µM.
Regarding `CN1CCN(C(c2ccc(Br)cc2)c2cc(Cl)c3cccnc3c2O)CC1` (configuration not stated), the IC50 was 35.4 µM.
As to `O=C(Cc1ccccc1)N/N=C/c1cc(Br)cc(Cl)c1O`, the IC50 is 26.4 µM.
As to `NC(N)=Nc1nc(-c2ccccc2)c2cc(Cl)ccc2n1`, the IC50 was 90.2 µM.
Regarding `CCN1CCN(C(=O)c2cc3cc(F)ccc3[nH]2)CC1`, the IC50 is 18.3 µM.
As to `COc1cc([N+](=O)[O-])cc(/C=N/NC(=O)CSc2ccccn2)c1O`, the IC50 was 93.2 µM.
Consider `CN1CCN(C2Cc3cc(F)ccc3Sc3ccc(Cl)cc32)CC1` (configuration not stated), for which the IC50 is 34.6 µM.
With `COc1ccc2sc(N(CCCN(C)C)C(=O)c3ccc(S(=O)(=O)N4CCc5ccccc5C4)cc3)nc2c1`, the IC50 is 122 µM.
`[O-][n+]1c2c(c3c4non(O)c4ccc31)CCCC2`: the IC50 was 79.2 µM.
In the case of `COc1cc(C)c(Cc2cnc(N)nc2N)cc1OC`, the IC50 was 5.98 µM.
For `C/C(=N\N=C(N)N)c1ccc(Cl)c(Cl)c1`, the IC50 was 64.4 µM.
For `C#CCOCCOCCOCCNc1nc(N2CCN(C(=O)[C@H](Cc3ccc(O)cc3)n3cc([C@@H](N)CC(C)C)nn3)CC2)nc(N2CCN(C(=O)[C@H](Cc3ccc(O)cc3)n3cc([C@@H](N)CC(C)C)nn3)CC2)n1`, the IC50 is 80 µM.
`Cc1ccccc1C(=O)Nc1cccc(C(=O)N/N=C/c2cc(Cl)cc([N+](=O)[O-])c2O)c1`: the IC50 is 32.9 µM.
The same measure for `CCn1ncc(/C=N\NC(=O)c2csc3ccccc23)c1C`: 124 µM; for `Cc1ccc2nc(N(CCCN(C)C)C(=O)c3ccc4c(c3)CCCC4)sc2c1`: 31.8 µM; for `COc1cc(CNCCO)cc(Cl)c1OCc1ccc(Cl)cc1Cl`: 22.4 µM.
In the case of `O=C1c2cccc3cccc(c23)C(=O)C1(O)O`, the IC50 is 17 µM.
Consider `NC(N)=N/N=C/c1ccc(OCc2ccccc2Cl)cc1`, for which the IC50 was 39.5 µM.
The same measure for `N=c1n(CCN2CCCCC2)c2ccccc2n1CC(=O)c1ccc(Cl)c(Cl)c1`: 16.4 µM; for `CN(C)CCNC(=O)c1ccc(COc2ccc(Cl)cc2Cl)cc1`: 75.6 µM.
For the molecule `CC(C)(C)c1ccc(OCCCCCCN2CCNCC2)cc1`, the IC50 was 49.2 µM.
Take `Oc1c(C(Nc2ccccn2)c2cccnc2)cc(Cl)c2cccnc12` (configuration not stated): the IC50 was 25.5 µM.
Turning to `CCn1cc(C(=O)O)c(=O)c2cc(F)c(N3CCN(C(=S)NC(=O)c4cccc(C)c4)CC3)cc21`, the IC50 is 37.8 µM.
The same measure for `O=C1OCC(CO)(CO)N=C1NNc1ccc(Cl)c(Cl)c1`: 144 µM; for `COc1cc2c3cc1Oc1cc(ccc1O)C[C@@H]1c4c(cc(OC)c(O)c4Oc4ccc(cc4)C[C@H]3N(C)CC2)CCN1C`: 93.4 µM.
Turning to `C#CCOCCOCCOCCNc1nc(N2CCN(C(=O)CCCCCCCCCCNC(=O)[C@H](CCCCN)n3cc(C)nn3)CC2)nc(N2CCN(C(=O)CCCCCCCCCCNC(=O)[C@H](CCCN=C(N)N)n3cc(C[C@@H](C)CC)nn3)CC2)n1`, the IC50 was 20.7 µM.
On to `CS(=O)(=O)c1ccc2nc(NC(=O)c3ccc(Cl)nc3)sc2c1`, for which the IC50 was 27.8 µM.
The same measure for `COc1cccc(F)c1C(C[N+](=O)[O-])c1c(N)n(C)c(=O)n(C)c1=O` (configuration not stated): 89.2 µM.
For `COc1ccccc1CNCCc1ccc(F)cc1`, the IC50 is 33 µM.
On to `O=C(O)c1cn(C2CC2)c2cc(N3CCN(S(=O)(=O)c4ccc5c(c4)OCCO5)CC3)c(F)cc2c1=O`, for which the IC50 is 15.9 µM.
On to `Oc1ccc(C2NCc3ccccc3-n3cccc32)cc1Cl` (configuration not stated), for which the IC50 is 89 µM.
With `CCN1CCN(C(=O)Nc2ccc(Cc3ccc(NC(=O)N4CCN(CC)CC4)cc3)cc2)CC1`, the IC50 was 97.4 µM.
For `Nc1cccc2nc3ccccc3cc12`, the IC50 is 68.7 µM.
For `Cc1ccc(C(=O)N/C(=C\c2ccc(-c3ccc(Br)cc3)o2)C(=O)NCCCN(C)C)cc1`, the concentration for half-maximal inhibition (IC50) was 37.4 µM.
On to `O=c1[nH]c(=S)ccn1C1OC(CO)C(O)C1O` (configuration not stated), for which the IC50 was 12.4 µM.
For `CCCCOc1ccc(CSC(=N)N)cc1Cl`, the IC50 is 19.1 µM.
In the case of `O=C(/C=C(\O)c1ccccc1)C(=O)NNC(=O)c1ccccc1`, the IC50 was 44.5 µM.
Regarding `CCn1cc(C(=O)O)c(=O)c2cnc(N3CCNCC3)nc21`, the IC50 was 50.1 µM.
Take `Cc1ccc(Nc2cc(C)nn2-c2nc(C)cc(=O)[nH]2)cc1`: the IC50 is 11.2 µM.
The same measure for `CC1COc2c(N3CCN(C)CC3)c(F)cc3c(=O)c(C(=O)O)cn1c23` (configuration not stated): 1.73 µM; for `CC[C@H]1OC(=O)C[C@@H](O)[C@H](C)[C@@H](O[C@@H]2O[C@H](C)C[C@H](N(C)C)[C@H]2O)[C@@H](CC=O)C[C@@H](C)C(=O)C=C[C@]2(C)O[C@H]2[C@@H]1C`: 3.95 µM.
For the molecule `O=C(Oc1c(Cl)cc(Cl)c2cccnc12)c1ccco1`, the IC50 was 15.6 µM.
Take `O=[N+]([O-])c1ccc(/C=[N+](\[O-])CCO)o1`: the IC50 was 88.9 µM.
The same measure for `NC1=NC[C@H](CC2CCCCC2)N1CCc1cc(C(F)(F)F)cc(C(F)(F)F)c1`: 35.2 µM; for `NC(=O)c1ccc(N=C2C(=O)Nc3ccc([N+](=O)[O-])cc32)cc1`: 72.8 µM; for `CCCCCCCCNC(C)C(O)c1ccc(SC(C)C)cc1` (configuration not stated): 30.7 µM.
Regarding `Clc1ccc(C[n+]2cc(-c3ccc(Cl)cc3)n3c2CCC3)cc1`, the IC50 was 37.7 µM.
Take `O=C(NNC(=S)NC(=O)c1ccccc1)c1ccc(O)cc1`: the IC50 is 51 µM.
Take `c1ccc2c(c1)OC(CCCN1CCCCC1)c1ccccc1S2` (configuration not stated): the 50% inhibitory concentration (IC50) was 76.4 µM.
With `CC(C)(C)c1ccc(NC(=O)COC(=O)c2ccc([N+](=O)[O-])s2)cc1`, the IC50 is 15.1 µM.
As to `Cc1nonc1C(=O)N/N=C/c1ccc(O)cc1O`, the IC50 is 20.3 µM.
Take `O=C(Nc1nnc(-c2cccs2)o1)c1cccc(F)c1`: the IC50 was 28.6 µM.
Take `CCC(C)NC(=O)c1cn(CC)c2cc(N3CCN(C)CC3)c(F)cc2c1=O` (configuration not stated): the IC50 was 38.2 µM.
`CN1CCN(C2Cc3cc(Cl)ccc3Sc3cc(F)ccc32)CC1` (configuration not stated): the IC50 is 22.2 µM.
In the case of `Cc1cc(N2CCC(C)CC2)nc2cccc(O)c12`, the IC50 is 80.2 µM.
As for `CN(C)[C@@H]1C(=O)C(C(N)=O)=C(O)[C@@]2(O)C(=O)C3=C(O)c4c(O)cccc4[C@@](C)(O)C3[C@H](O)C12` (some centres not stated), the IC50 is 0.31 µM and 1.78 µM.
Take `Cc1ccc(NC(=O)CN(C)C2CCCCC2)cc1Br`: the IC50 was 41.6 µM.
For `CN1CCC(OC(=O)c2ccc(Cl)cc2Cl)CC1`, the IC50 was 36.8 µM.
For `CNC(CC(=O)c1ccc([N+](=O)[O-])cc1)C(Cl)(Cl)Cl` (configuration not stated), the IC50 is 82.7 µM.
Consider `CCN(CC)c1ccc(CNc2nc3ccccc3n2CCN2CCCCC2)cc1`, for which the IC50 is 43.5 µM.
The same measure for `CC(=O)NC(c1cccc([N+](=O)[O-])c1)c1ccc2cccnc2c1O` (configuration not stated): 101 µM.
On to `O=C(Cn1cc[n+](CC(=O)c2ccc(Cl)cc2Cl)c1)c1ccc(Cl)cc1Cl`, for which the IC50 is 27.6 µM.
The same measure for `CN(Cc1ccccc1O)CC1CCCN(CCc2ccc(Cl)cc2)C1` (configuration not stated): 16.9 µM; for `C#CCOCCOCCOCCNc1nc(N2CCN(C(=O)C(Cc3ccc(O)cc3)n3cc(C(N)CC(C)C)nn3)CC2)nc(N2CCN(C(=O)C(Cc3cc4ccccc4[nH]3)n3cc(C(N)Cc4ccc(O)cc4)nn3)CC2)n1` (configuration not stated): 37.7 µM.
